# Source: patent publication US7335686B2, “Method and composition for treating osteoporosis” (Council of Scientific and Industrial Research, priority 2003, dated 2008)
# Tested on: osteoclast precursors (murine bone marrow cells)
# Experiment: In vitro osteoclastogenesis assay (M-CSF + RANKL, TRAP staining)
# Assay type: cell-based, Balb/c mice
# Conditions: M-CSF and RANKL, TRAP-positive osteoclasts
# Method: Mice were sacrificed by cervical dislocation and femora and tibiae were aseptically removed and dissected free of adherent soft tissues. The bone ends were cut, and the marrow cavity was flushed out with medium MEM from one end of the bone using a sterile 21-gauge needle. The bone marrow suspension was carefully agitated with a plastic Pasteur pipette to obtain a single-cell suspension. The cells were washed twice and resuspended (10^6 cells/ml) in αMEM containing 10% FBS. […] After 24 h, nonadherent cells were harvested and layered on a Ficoll-Hypaque gradient. Cells at the gradient interface were collected, washed and resuspended (5×10^5/ml) in αMEM containing 10% FBS. In this study, we called these stromal cell-free, M-CSF-dependent, nonadherent cells as osteoclast precursors. These osteoclast precursors were added to 96-well plates (100 μl/well) containing plastic coverslips. […] Cultures were fed every 2-3 days and after incubation for 6 days osteoclast formation was evaluated by tartrate-resistant acid phosphatase (TRAP) staining. The number of TRAP-positive multinucleated cells (MNCs) containing 3 or more nuclei was scored.
# TRAP is preferentially expressed at high levels in osteoclast and is considered, especially in the mouse, to be an osteoclast marker. […] Only those cells that were strongly TRAP-positive (dark red) counted by light microscopy.
row,SMILES,Effect on RANKL-induced osteoclast formation/differentiation (in words)
1,"O=C([O-])CC[C@H](NS(=O)(=O)[O-])C(=O)[O-].O=C([O-])CC[C@H](NS(=O)(=O)[O-])C(=O)[O-].[Ca+2].[Ca+2].[Ca+2] [compound 1, L-glutamyl-N-sulphonic acid, Ca salt]",dose dependent inhibition
2,"O=C(O)C[C@H](NS(=O)(=O)O)C(=O)O [example 3, L-aspartyl, N-sulfonic acid]",significantly inhibited osteoclast formation
